From US20140206682A1, “COMPOUNDS AND COMPOSITIONS AS PDGFR KINASE INHIBITORS” (NOVARTIS PHARMACEUTICALS UK LIMITED, priority 2011, published 2014)

System: PDGFR
Assay: Rat A10 cell proliferation assay
Type: cell-based
Conditions: Table 1; Rat A10 cells, recombinant rat PDGF-BB, CellTiter-Glo after 68 hours
Protocol: Compounds of Formula (I) provided herein were assayed to measure their capacity to inhibit c-kit and PDGFR kinases using the appropriate assay described below: c-Kit inhibition was evaluated using the Mo7e cell proliferation assay, and PDGFR inhibition was evaluated using the Rat A10 cell proliferation assay and the Human TG/HA-VSMC cell proliferation assay.
Rat A10 cells (ATCC) were resuspended in DMEM supplemented with 1% FBS and 10 ng/mL recombinant rat PDGF-BB at 20,000 cells/mL. The cells were aliquoted into 384 well plates at 50 μL/well and incubated for 4 hours at 37° C. 0.5 μL of test compound 3-fold serially diluted in DMSO was added to each well. The plates were returned to the incubator for a further 68 hours. 25 μL of CellTiter-Glo (Promega) was added to each well and the plates were incubated on the bench for 15 minutes. Luminescence was then read using a CLIPR CCD camera (Molecular Devices).

SMILES	IC50
O=C(N[C@@H]1c2ccccc2OC[C@@H]1O)c1ccc(F)c(NC(=O)c2cnc3ccccn23)c1 (racemic) [F34, N-(2-fluoro-5-{[(3R,4R)-3-hydroxy-3,4-dihydro-2H-1-benzopyran-4-yl]carbamoyl}phenyl)imidazo[1,2-a]pyridine-3-carboxamide]	195 nM
CN(C)CCCOc1ccc(-c2ccn3c(C(=O)Nc4cc(C(=O)N[C@H]5Cc6ccccc6[C@H]5O)ccc4F)cnc3c2)cn1 (stereo in doubt) [F32, 7-{6-[3-(dimethylamino)propoxy]pyridin-3-yl}-N-(2-fluoro-5-{[(1R,2S)-1-hydroxy-2,3-dihydro-1H-inden-2-yl]carbamoyl}phenyl)imidazo[1,2-a]pyridine-3-carboxamide]	44 nM
Cc1ccc2ncc(C(=O)Nc3cc(C(=O)N[C@@H]4c5cc(Cl)ccc5C[C@@H]4O)ccc3F)n2c1 (stereo in doubt) [F33, N-(5-{[(1R,2S)-6-chloro-2-hydroxy-2,3-dihydro-1H-inden-1-yl]carbamoyl}-2-fluorophenyl)-6-methylimidazo[1,2-a]pyridine-3-carboxamide]	163 nM
Cc1ccc(C(=O)NC(CO)Cc2ccccc2)cc1NC(=O)c1cnc2ccccn12 (stereo not drawn) [F1, N-{5-[(1-hydroxy-3-phenylpropan-2-yl)carbamoyl]-2-methylphenyl}imidazo[1,2-a]pyridine-3-carboxamide]	82 nM
Cc1ccc(C(=O)NC(CO)c2ccccc2)cc1NC(=O)c1cnc2ccccn12 (stereo not drawn) [F2, N-{5-[(2-hydroxy-1-phenylethyl)carbamoyl]-2-methylphenyl}imidazo[1,2-a]pyridine-3-carboxamide]	146 nM
Cc1ccc(C(=O)NC(CO)C(C)C)cc1NC(=O)c1cnc2ccccn12 (stereo not drawn) [F3, N-{5-[(1-hydroxy-3-methylbutan-2-yl)carbamoyl]-2-methylphenyl}imidazo[1,2-a]pyridine-3-carboxamide]	175 nM
O=C(NC(CO)c1ccccc1)c1ccc(F)c(NC(=O)c2cnc3ccccn23)c1 (stereo not drawn) [F4, N-{2-fluoro-5-[(2-hydroxy-1-phenylethyl)carbamoyl]phenyl}imidazo[1,2-a]pyridine-3-carboxamide]	89 nM
O=C(N[C@@H]1c2ccccc2C[C@@H]1O)c1ccc(F)c(NC(=O)c2cnc3ccccn23)c1 [F5, N-(2-fluoro-5-{[(1R,2S)-2-hydroxy-2,3-dihydro-1H-inden-1-yl]carbamoyl}phenyl)imidazo[1,2-a]pyridine-3-carboxamide]	35 nM
O=C(N[C@H]1c2ccccc2C[C@H]1O)c1ccc(F)c(NC(=O)c2cnc3ccccn23)c1 [F6, N-(2-fluoro-5-{[(1S,2R)-2-hydroxy-2,3-dihydro-1H-inden-1-yl]carbamoyl}phenyl)imidazo[1,2-a]pyridine-3-carboxamide]	86 nM
O=C(N[C@@H]1c2ccccc2C[C@H]1O)c1ccc(F)c(NC(=O)c2cnc3ccccn23)c1 [F7, N-(2-fluoro-5-{[(1R,2R)-2-hydroxy-2,3-dihydro-1H-inden-1-yl]carbamoyl}phenyl)imidazo[1,2-a]pyridine-3-carboxamide]	138 nM
O=C(N[C@H]1c2ccccc2C[C@@H]1O)c1ccc(F)c(NC(=O)c2cnc3ccccn23)c1 [F8, N-(2-fluoro-5-{[(1S,2S)-2-hydroxy-2,3-dihydro-1H-inden-1-yl]carbamoyl}phenyl)imidazo[1,2-a]pyridine-3-carboxamide]	38 nM
O=C(N[C@H]1CCCC[C@@H]1O)c1ccc(F)c(NC(=O)c2cnc3ccccn23)c1 [F9, N-(2-fluoro-5-{[(1S,2S)-2-hydroxycyclohexyl]carbamoyl}phenyl)imidazo[1,2-a]pyridine-3-carboxamide]	70 nM
O=C(NC1Cc2ccccc2C1O)c1ccc(F)c(NC(=O)c2cnc3cc(Br)ccn23)c1 (stereo not drawn) [F10, 7-bromo-N-{2-fluoro-5-[(1-hydroxy-2,3-dihydro-1H-inden-2-yl)carbamoyl]phenyl}imidazo[1,2-a]pyridine-3-carboxamide]	130 nM
O=C(N[C@@H]1CCCC[C@@H]1O)c1ccc(F)c(NC(=O)c2cnc3ccccn23)c1 [F11, N-(2-fluoro-5-{[(1R,2S)-2-hydroxycyclohexyl]carbamoyl}phenyl)imidazo[1,2-a]pyridine-3-carboxamide]	199 nM
O=C(N[C@@H]1CCCCC[C@H]1O)c1ccc(F)c(NC(=O)c2cnc3ccccn23)c1 [F12, N-(2-fluoro-5-{[(1R,2R)-2-hydroxycycloheptyl]carbamoyl}phenyl)imidazo[1,2-a]pyridine-3-carboxamide]	79 nM

Same assay, conditions: Table 2; Rat A10 cells, recombinant rat PDGF-BB, CellTiter-Glo after 68 hours

SMILES	IC50
O=C(N[C@@H]1c2ccccc2C[C@@H]1O)c1ccc(F)c(NC(=O)c2cnc3cc(C(F)(F)F)ccn23)c1 (stereo in doubt) [F40, N-(2-fluoro-5-{[(1R,2S)-2-hydroxy-2,3-dihydro-1H-inden-1-yl]carbamoyl}phenyl)-7-(trifluoromethyl)imidazo[1,2-a]pyridine-3-carboxamide]	261 nM
Cc1ccc2ncc(C(=O)Nc3cc(C(=O)N[C@@H]4c5ccc(Cl)cc5C[C@@H]4O)ccc3F)n2c1 (stereo in doubt) [F41, N-(5-{[(1R,2S)-5-chloro-2-hydroxy-2,3-dihydro-1H-inden-1-yl]carbamoyl}-2-fluorophenyl)-6-methylimidazo[1,2-a]pyridine-3-carboxamide]	272 nM
O=C(N[C@@H]1c2cc(Cl)ccc2C[C@@H]1O)c1ccc(F)c(NC(=O)c2cnc3ccc(F)cn23)c1 (stereo in doubt) [F42, N-(5-{[(1R,2S)-6-chloro-2-hydroxy-2,3-dihydro-1H-inden-1-yl]carbamoyl}-2-fluorophenyl)-6-fluoroimidazo[1,2-a]pyridine-3-carboxamide]	277 nM
O=C(NC1CCCC[C@H]1CO)c1ccc(F)c(NC(=O)c2cnc3ccccn23)c1 (stereo in doubt) [F43, N-(2-fluoro-5-{[(1R,2R)-2-(hydroxymethyl)cyclohexyl]carbamoyl}phenyl)imidazo[1,2-a]pyridine-3-carboxamide]	294 nM
O=C(NC(CO)c1ccccc1)c1cccc(NC(=O)c2cnc3ccccn23)c1 (stereo in doubt) [F44, N-(3-{[(1S)-2-hydroxy-1-phenylethyl]carbamoyl}phenyl)imidazo[1,2-a]pyridine-3-carboxamide]	311 nM
COc1ccc2c(c1)[C@@H](NC(=O)c1ccc(F)c(NC(=O)c3cnc4ccc(C)cn34)c1)[C@@H](O)C2 (stereo in doubt) [F45, N-(2-fluoro-5-{[(1R,2S)-2-hydroxy-6-methoxy-2,3-dihydro-1H-inden-1-yl]carbamoyl}phenyl)-6-methylimidazo[1,2-a]pyridine-3-carboxamide]	345 nM
O=C(N[C@H]1Cc2ccccc2[C@H]1O)c1ccc(F)c(NC(=O)c2cnc3ccccn23)c1 (stereo in doubt) [F46, N-(2-fluoro-5-{[(1R,2S)-1-hydroxy-2,3-dihydro-1H-inden-2-yl]carbamoyl}phenyl)imidazo[1,2-a]pyridine-3-carboxamide]	348 nM
O=C(N[C@@H]1c2ccccc2C[C@@H]1O)c1cccc(NC(=O)c2cnc3ccccn23)c1 (stereo in doubt) [F47, N-(3-{[(1R,2S)-2-hydroxy-2,3-dihydro-1H-inden-1-yl]carbamoyl}phenyl)imidazo[1,2-a]pyridine-3-carboxamide]	356 nM
O=C(N[C@@H]1c2ccccc2C[C@@H]1O)c1ccc(F)c(NC(=O)c2cnc3ccc(N4CCOCC4)cn23)c1 (stereo in doubt) [F54, N-(2-fluoro-5-{[(1R,2S)-2-hydroxy-2,3-dihydro-1H-inden-1-yl]carbamoyl}phenyl)-6-(morpholin-4-yl)imidazo[1,2-a]pyridine-3-carboxamide]	477 nM
O=C(N[C@@H]1c2ccccc2C[C@@H]1O)c1ccc(F)c(NC(=O)c2cnc3ccc(C(F)(F)F)cn23)c1 (stereo in doubt) [F58, N-(2-fluoro-5-{[(1R,2S)-2-hydroxy-2,3-dihydro-1H-inden-1-yl]carbamoyl}phenyl)-6-(trifluoromethyl)imidazo[1,2-a]pyridine-3-carboxamide]	584 nM
O=C(N[C@@H]1c2ccccc2C[C@@H]1O)c1ccc(F)c(NC(=O)c2cnc3ccc(COCC(F)(F)F)cn23)c1 (stereo in doubt) [F61, N-(2-fluoro-5-{[(1R,2S)-2-hydroxy-2,3-dihydro-1H-inden-1-yl]carbamoyl}phenyl)-6-[(2,2,2-trifluoroethoxy)methyl]imidazo[1,2-a]pyridine-3-carboxamide]	618 nM
O=C(N[C@H]1CCCC1O)c1ccc(F)c(NC(=O)c2cnc3ccccn23)c1 (stereo in doubt) [F62, N-(2-fluoro-5-{[(1S,2S)-2-hydroxycyclopentyl]carbamoyl}phenyl)imidazo[1,2-a]pyridine-3-carboxamide]	684 nM
O=C(N[C@@H]1CCC[C@@H]1O)c1ccc(F)c(NC(=O)c2cnc3ccccn23)c1 (stereo in doubt) [F66, N-(2-fluoro-5-{[(1R,2S)-2-hydroxycyclopentyl]carbamoyl}phenyl)imidazo[1,2-a]pyridine-3-carboxamide]	1180 nM
O=C(N[C@H]1CCCCC1O)c1cccc(NC(=O)c2cnc3ccccn23)c1 (stereo in doubt) [F67, N-(3-{[(1S,2S)-2-hydroxycyclohexyl]carbamoyl}phenyl)imidazo[1,2-a]pyridine-3-carboxamide]	1360 nM
O=C(N[C@@H]1c2ccccc2C[C@@H]1O)c1ccc(F)c(NC(=O)c2cnc3ccc(-n4ccnc4)cn23)c1 (stereo in doubt) [F72, N-(2-fluoro-5-{[(1R,2S)-2-hydroxy-2,3-dihydro-1H-inden-1-yl]carbamoyl}phenyl)-6-(1H-imidazol-1-yl)imidazo[1,2-a]pyridine-3-carboxamide]	2860 nM
